# Laboratory results published in patent publication US20260258035A1, “FIVE-MEMBERED AND SIX-MEMBERED NITROGEN-CONTAINING COMPOUND, AND INTERMEDIATE, PREPARATION METHOD AND USE THEREOF” (HANGZHOU SYNRX THERAPEUTICS BIOMEDICAL TECHNOLOGY CO., LTD., priority 2022, published 2026).
# Where two headings read alike, the source gives them in different places.
# Tests used:
# PARG = PARG (Homo sapiens, UniProt Q86W56); assay: Biochemical assay (PARG, TFMU-ADPr substrate)
# [1] = system: Human breast squamous carcinoma cells HCC1806; assay: Cell function assay (In-Cell Western, PAR/pADPr after MMS); format: cell-based
# Method: 2. Cell Function Assay (In-Cell Western)
# • 1) Human breast squamous carcinoma cells HCC1806 (ATCC) were seeded to the 384-well plate (Corning, #3764) at 20,000 cells/well, incubated for 24 h in a CO2 (5%) incubator at 37° C. to allow for complete adherence of the cells; • 2) 120 nL compounds or DMSO were added to the 384-well plate by Echo 550 (LABCYTE, #550) (final concentrations of compounds: 30000 nM, 10000 nM, 3000 nM, 1000 nM, 300 nM, 100 nM, 30 nM, 10 nM, 3 nM, 1 nM, 0 nM), and then the cells were incubated for 1 h in a CO2 (5%) incubator at 37° C.; • 3) 40 nL MMS (methyl mesylate, Sigma, #129925)(final concentration: 0.5 mM) was added to the plate by Echo 550, and the cells were treated for 1 h in a CO2 (5%) incubator at 37° C.
# [2] = 4 nM PARG, 66.2 uM TFMU-ADPr, 3 min at room temperature
# [3] = HCC1806, In-Cell Western, MMS treatment, read-out: IC50 (nM) in cell function assay
# [4] = HCC1806, compound 1 h then 0.5 mM MMS 1 h, PAR/pADPr antibody, In-Cell Western, read-out: IC50 (nM) in cell function assay
# Chain of PARG (Q86W56 whole entry): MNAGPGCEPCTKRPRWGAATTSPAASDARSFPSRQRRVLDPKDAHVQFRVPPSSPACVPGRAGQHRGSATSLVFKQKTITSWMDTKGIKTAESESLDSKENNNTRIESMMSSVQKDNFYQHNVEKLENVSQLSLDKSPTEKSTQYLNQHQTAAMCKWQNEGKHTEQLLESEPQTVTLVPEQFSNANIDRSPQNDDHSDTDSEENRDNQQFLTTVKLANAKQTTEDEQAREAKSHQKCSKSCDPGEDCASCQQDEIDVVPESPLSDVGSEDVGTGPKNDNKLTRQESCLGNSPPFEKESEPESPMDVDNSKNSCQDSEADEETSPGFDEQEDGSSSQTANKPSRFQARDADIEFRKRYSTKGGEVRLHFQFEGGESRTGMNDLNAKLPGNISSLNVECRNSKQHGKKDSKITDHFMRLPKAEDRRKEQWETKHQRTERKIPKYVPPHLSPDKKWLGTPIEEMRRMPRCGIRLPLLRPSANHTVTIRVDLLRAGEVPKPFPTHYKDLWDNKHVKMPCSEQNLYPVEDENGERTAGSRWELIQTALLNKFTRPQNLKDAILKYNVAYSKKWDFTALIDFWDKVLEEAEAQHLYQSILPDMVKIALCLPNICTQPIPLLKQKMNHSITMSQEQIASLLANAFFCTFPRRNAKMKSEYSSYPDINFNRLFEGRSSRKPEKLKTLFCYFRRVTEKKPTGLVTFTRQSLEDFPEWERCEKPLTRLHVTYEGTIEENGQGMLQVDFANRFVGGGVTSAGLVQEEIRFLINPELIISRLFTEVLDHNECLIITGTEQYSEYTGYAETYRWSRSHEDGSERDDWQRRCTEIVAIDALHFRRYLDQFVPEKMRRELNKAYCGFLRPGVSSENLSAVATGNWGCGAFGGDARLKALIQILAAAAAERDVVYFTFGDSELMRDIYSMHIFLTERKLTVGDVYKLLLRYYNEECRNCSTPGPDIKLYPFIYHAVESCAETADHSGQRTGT
IC50 (PARG; [2]),"IC50 (PARG; PARG, TFMU-ADPr substrate)","IC50 [1, 3]","IC50 [1, 4]",Compound,"IC50 ([1]; HCC1806, 1 h, read-out: IC50 (nM) in cell function assay)","IC50 ([1]; HCC1806, read-out: IC50 (nM) in cell function assay)"
< 100 nM,8.69 nM,6.77 nM,< 100 nM,"C[C@@H]1CN(c2cc(S(=O)(=O)NC3(C)COC3)cn3c(-c4nnc(C(F)F)s4)ncc23)CCN1C(=O)C1(C)CC1 [Example 88, (R)-3-(5-(difluoromethyl)-1,3,4-thiadiazol-2-yl)-8-(3-methyl-4-(1-methylcyclopropane-1-carbonyl)piperazin-1-yl)-N-(3-methyloxetan-3-yl)imidazo[1,5-a]pyridine-6-sulfonamide]",,
< 100 nM,6.61 nM,1.5 nM,< 100 nM,"CC(C)C(=O)N1CCN(c2cc(S(=O)(=O)NC3(C#N)CC3)cn3c(-c4nnc(C(F)F)s4)ncc23)C[C@H]1C [Example 74, (R)-N-(1-cyanocyclopropyl)-3-(5-(difluoromethyl)-1,3,4-thiadiazol-2-yl)-8-(4-isobutyryl-3-methylpiperazin-1-yl)imidazo[1,5-a]pyridine-6-sulfonamide]",,
< 100 nM,0.76 nM,2.01 nM,< 100 nM,"CC(C)C(=O)N1CCN(c2cc(S(=O)(=O)NC3(CF)CC3)cn3c(-c4nnc(C(F)F)s4)cnc23)CC1 [Example 14, 3-(5-(difluoromethyl)-1,3,4-thiadiazol-2-yl)-N-(1-(fluoromethyl)cyclopropyl)-8-(4-isobutyrylpiperazin-1-yl)imidazo[1,2-a]pyridine-6-sulfonamide]",,
< 100 nM,3.67 nM,36.3 nM,< 100 nM,"CN1CC2(CCN(c3cc(S(=O)(=O)NC4(CF)CC4)cn4c(-c5nnc(C(F)F)s5)nnc34)CC2)CC1=O [Example 112, 3-(5-(difluoromethyl)-1,3,4-thiadiazol-2-yl)-N-(1-(fluoromethyl)cyclopropyl)-8-(2-methyl-3-oxo-2,8-diazaspiro[4.5]decan-8-yl)-[1,2,4]triazolo[4,3-a]pyridine-6-sulfonamide]",,
< 100 nM,1.58 nM,5.14 nM,< 100 nM,"CC(C)C(=O)N1CCN(c2cc(S(=O)(=O)NC3(C)CC3)cn3c(-c4nnc(C(F)F)s4)nc(C#N)c23)CC1 [Example 163, 1-cyano-3-(5-(difluoromethyl)-1,3,4-thiadiazol-2-yl)-8-(4-isobutyrylpiperazin-1-yl)-N-(1-methylcyclopropyl)imidazo[1,5-a]pyridine-6-sulfonamide]",,
< 100 nM,1.5 nM,33.6 nM,< 100 nM,"CC(C)C(=O)N1CCN(c2cc(S(=O)(=O)NC3(C)COC3)cn3c(-c4nnc(C(F)F)s4)nnc23)CC1 [Example 103, 3-(5-(difluoromethyl)-1,3,4-thiadiazol-2-yl)-8-(4-isobutyrylpiperazin-1-yl)-N-(3-methyloxetan-3-yl)-[1,2,4]triazolo[4,3-a]pyridine-6-sulfonamide]",,
< 100 nM,8.15 nM,1540 nM,> 1000 nM,"C#CC1(NS(=O)(=O)c2cc(N3CCN(C(=O)C(C)C)CC3)c3nnc(-c4nnc(C(F)F)s4)n3c2)COC1 [Example 101, 3-(5-(difluoromethyl)-1,3,4-thiadiazol-2-yl)-N-(3-ethynyloxetan-3-yl)-8-(4-isobutyrylpiperazin-1-yl)-[1,2,4]triazolo[4,3-a]pyridine-6-sulfonamide]",,

# The remaining lines, values behind:
Compound,IC50 (PARG; [2]),"IC50 (PARG; PARG, TFMU-ADPr substrate)","IC50 [1, 3]","IC50 [1, 4]","IC50 ([1]; HCC1806, 1 h, read-out: IC50 (nM) in cell function assay)","IC50 ([1]; HCC1806, read-out: IC50 (nM) in cell function assay)"
"CC(C)C[C@@H]1CN(c2cc(S(=O)(=O)NC3(C#N)CC3)cn3c(-c4nnc(C(F)F)s4)ncc23)CCN1C(=O)C1(C)CC1 [Example 97, (R)-N-(1-cyanocyclopropyl)-3-(5-(difluoromethyl)-1,3,4-thiadiazol-2-yl)-8-(3-isobutyl-4-(1-methylcyclopropane-1-carbonyl)piperazin-1-yl)imidazo[1,5-a]pyridine-6-sulfonamide]",< 100 nM,5.01 nM,7.52 nM,< 100 nM,,
"C[C@@H]1CN(c2cc(S(=O)(=O)NC3(CF)CC3)cn3c(-c4nnc(C(F)F)s4)ncc23)CCN1C(=O)C1(C)CC1 [Example 63, (R)-3-(5-(difluoromethyl)-1,3,4-thiadiazol-2-yl)-N-(1-(fluoromethyl)cyclopropyl)-8-(3-methyl-4-(1-methylcyclopropane-1-carbonyl)piperazin-1-yl)imidazo[1,5-a]pyridine-6-sulfonamide]",< 100 nM,2.12 nM,1.36 nM,< 100 nM,,
"N#CC1(NS(=O)(=O)c2ccc3c(C4CCC5(CNC5)C4)nc(-c4nnc(C(F)F)s4)n3c2)CC1 (stereo not drawn) [Example 26, N-(1-cyanocyclopropyl)-3-(5-(difluoromethyl)-1,3,4-thiadiazol-2-yl)-1-(2-azaspiro[3.4]octan-6-yl)imidazo[1,5-a]pyridine-6-sulfonamide]",< 100 nM,5.37 nM,4690 nM,> 1000 nM,,
"CC(C)C(=O)N1CCN(c2cc(S(=O)(=O)NC3(C#N)CC3)cc3c(-c4nnc(C(F)F)s4)cnn23)CC1 [Example 27, N-(1-cyanocyclopropyl)-3-(5-(difluoromethyl)-1,3,4-thiadiazol-2-yl)-7-(4-isobutyrylpiperazin-1-yl)pyrazolo[1,5-a]pyridine-5-sulfonamide]",< 100 nM,4.98 nM,,,100 to 500 nM,76.3 nM
"O=S(=O)(NC1(CF)CC1)c1cc(N2CCC3(CC2)COC3)c2nnc(-c3nnc(C(F)F)s3)n2c1 [Example 104, 3-(5-(difluoromethyl)-1,3,4-thiadiazol-2-yl)-N-(1-(fluoromethyl)cyclopropyl)-8-(2-oxa-7-azaspiro[3.5]nonan-7-yl)-[1,2,4]triazolo[4,3-a]pyridine-6-sulfonamide]",< 100 nM,0.65 nM,9.76 nM,< 100 nM,,
"CC(C)(F)C(=O)N1CCN(c2cc(S(=O)(=O)NC3(C#N)CC3)cn3c(-c4nnc(C(F)F)s4)ncc23)CC1 [Example 64, N-(1-cyanocyclopropyl)-3-(5-(difluoromethyl)-1,3,4-thiadiazol-2-yl)-8-(4-(2-fluoro-2-methylpropanoyl)piperazin-1-yl)imidazo[1,5-a]pyridine-6-sulfonamide]",< 100 nM,3.44 nM,6.92 nM,< 100 nM,,
"CC(C)[C@@H]1CN(c2cc(S(=O)(=O)NC3(C#N)CC3)cn3c(-c4nnc(C(F)F)s4)ncc23)CCN1C(=O)C1(C)CC1 [Example 96, (R)-N-(1-cyanocyclopropyl)-3-(5-(difluoromethyl)-1,3,4-thiadiazol-2-yl)-8-(3-isopropyl-4-(1-methylcyclopropane-1-carbonyl)piperazin-1-yl)imidazo[1,5-a]pyridine-6-sulfonamide]",< 100 nM,2.09 nM,1.68 nM,< 100 nM,,
"C[C@@H]1CN(c2cc(S(=O)(=O)NC3(C#N)CC3)cn3c(-c4nnc(C(F)F)s4)ncc23)CCN1C(=O)C1(F)CC1 [Example 77, (R)-N-(1-cyanocyclopropyl)-3-(5-(difluoromethyl)-1,3,4-thiadiazol-2-yl)-8-(4-(1-fluorocyclopropane-1-carbonyl)-3-methylpiperazin-1-yl)imidazo[1,5-a]pyridine-6-sulfonamide]",< 100 nM,24 nM,14.8 nM,< 100 nM,,
